{"source": "patent US20180116993A1", "about": "“MODULATORS OF FARNESOID X RECEPTOR AND METHODS FOR THE USE THEREOF” (XIAMEN UNIVERSITY, priority 2015, published 2018)", "key": {"[1]": {"system": "mouse embryonic fibroblasts (MEFs)", "experiment": "GSH levels in mouse embryonic fibroblasts (MEFs)", "assay_type": "cell-based", "settings": "20 μM, 24 hours, vehicle 31 ± 6", "excerpt": "The reduced glutathione (GSH) is a natural antioxidant in cells and plays important function responding the oxidative stress. The GSH levels will decrease with age, infection, poisoning, exogenous toxins and oxidative stress. The Sestrin2 (Sesn2) gene encodes a conserved antioxidant protein that is induced on oxidative stress and protects cells against reactive oxygen species. SOD2 is an antioxidant enzyme. The antioxidants are defense system for organ to prevent damage by free radical. In this example, the mouse embryonic fibroblasts (MEFs) were treated with compounds for 24 hours, and the GSH levels were analyzed using GSH kit (Nanjing Jiancheng Engineering Institute, China). […] Correspondingly, the expression levels of the antioxidant genes such as SOD2 and SESN2 increased in compounds treated MEFs (Table 26 and Table 28)."}, "[2]": {"system": "mice with APAP-induced liver injury", "experiment": "Acetaminophen (APAP)-induced liver injury in mouse", "assay_type": "in vivo", "excerpt": "Methods: Acetaminophen (APAP)-induced liver injury in mouse is a commonly used model to study drugs protecting liver. Overdose of APAP causes liver injury by inducing the production of reactive oxygen species and reactive nitrogen species, and excessive consumption of reductive substances such as antioxidant glutathione (GSH), leading to the reduction of GSH in vivo, and the following upregulation of the activities of the aspartate aminotransferase (AST), the alanine aminotransferase (ALT) and the lactate dehydrogenase (LDH), which will result in liver inflammation and necrosis. In this example, the APAP-induced liver injury was used to detect the protection and repair functions of our compounds in liver injury.\nOne-year or 8-week age mice were maintained under environmentally controlled conditions with free access to standard chow diet and water. Animal experiments were conducted in the barrier facility of the Laboratory Animal Center, Xiamen University, approved by the Institutional Animal Use and Care Committee of Xiamen University, China.\nCompounds were solved with DMSO and then prepared to work concentration with 40% HBC (2-hydroxypropyl-β-cyclodextrin) in which the final work concentrations of compounds are 5 mg/kg body weight, 10 mg/kg or 20 mg/kg in 100 μl injection volume and the concentration of DMSO is 10%. Compounds were intraperitoneal (i.p.) injected once daily for five days. For Feroline and Tschimganine, one-year age mice were used in the experiment. For other compounds, 8-week age mice were used. […] For Tschimganine, 20 mg/kg dose of compound was administered to mice. For other compounds, 5 mg/kg dose of compounds were administered to mice. Six hours after the fifth injection, 500 mg/kg body weight of APAP solved in PBS was i.p. injected to the mice. 24 hours later, mice were sacrificed. Part of each liver was fixed in 4% paraformaldehyde, and the liver histology characterization was analyzed by haematoxylin and eosin (H&E) staining with paraffin-embedded sections by standard procedures. Other liver tissues were collected for detecting the GSH levels, and the mRNA expression of genes involved in liver repairing, such as GPX1 and UGT1a1, by RT-PCR. The serums were collected to measure enzymes activities including AST, ALT and LDH. For the synthetic derivatives, ALT and GSH were selected as indicating markers for the function of these compounds."}, "[3]": {"experiment": "Clearance of superoxide anion radical in vitro", "settings": "method of CN 102813683 B, p<0.01"}, "db/db mice": {"system": "db/db mice", "experiment": "Serum/blood metabolic parameters in high-fat diet fed db/db mice", "assay_type": "in vivo, mouse", "settings": "50 mg/kg for 7 days", "excerpt": "(§1) KK-Ay mice (KK/Upj-Ay/J) are animal models with moderate obese and diabetes with insulin resistance. KK-Ay mice develop hyperglycemia, hyperinsulinemia, glucose intolerance and obesity as well as fat accumulation in liver by eight weeks of age. Pancreatic islets are hypertrophied and the β-cells are degranulated. db/db mice (BKS.Cg-Dockr+/+ Lepr^db/Jnju) are animal models of type II diabetes. They have the phenotype of insulin resistance. These model mice were used to detect the functions of our compounds on metabolic diseases.\n8-10 weeks age mice were maintained as example 4, and fed with high-fat diet (Research Diets, D12492). Mice were i.p. injected with compounds once daily for 7, 10, 11 or 14 days as indicated in each table. After the last compounds injection, mice were fasted for 6 hours with free access to water, and then sacrificed. Part of each liver was fixed in 4% paraformaldehyde for H&E staining, and other liver tissues were stored in liquid nitrogen for enzyme activity measurement and gene expression analysis by RT-PCR. The serums were collected to measure metabolic parameters, including serum glucose, insulin, cholesterol, free fatty acid (FFA) and triglyceride levels. Serum glucose was analyzed using glucose oxidase method (Applygen, Beijing, China). The blood glucose in Table 11 was measured with Berenger blood glucose test strips (B/BRAUN, German) from blood by cutting mice tail after the 6th injection and following fast for 16 hours. Serum cholesterol and FFA were analyzed using Cholesterol Assay Kit and FFA Assay Kit (Bioassay Systems, USA; Nanjing Jiancheng Bioengineering Institute, China; FFA ELISA, R&D, USA), respectively. Serum triglyceride was analyzed using Triglyceride Assay Kit (Bioassay Systems, USA; WAKO Chemicals Inc., Japan; Applygen, Beijing, China). Liver triglyceride was analyzed using Tissue triglyceride assay kit (Applygen, Beijing, China). Serum insulin levels were measured by the Ultra Sensitive Mouse Insulin ELISA Kit (Crystal Chem. Inc., USA). RNA was isolated using Tissue RNA kit (Omega Bio-Tek, GA). The first strand cDNA were obtained by TAKARA reverse transcription kit. Real-time quantitative PCR were performed on a CFX96™ Real-Time PCR Detection System (Bio-Rad) using SYBR Premix Ex Taq™ (TAKARA). Relative mRNA expression levels were normalized to actin levels. […]"}, "KK-Ay mice": {"system": "KK-Ay mice", "experiment": "Serum metabolic parameters in high-fat diet fed diabetic KK-Ay mice", "assay_type": "in vivo, mouse", "settings": "10 mg/kg for 14 days, vehicle 253 ± 11", "excerpt": "as §1\n8-10 weeks age mice were maintained as example 4, and fed with high-fat diet (Research Diets, D12492). Mice were i.p. injected with compounds once daily for 7, 10, 11 or 14 days as indicated in each table. After the last compounds injection, mice were fasted for 6 hours with free access to water, and then sacrificed. Part of each liver was fixed in 4% paraformaldehyde for H&E staining, and other liver tissues were stored in liquid nitrogen for enzyme activity measurement and gene expression analysis by RT-PCR. The serums were collected to measure metabolic parameters, including serum glucose, insulin, cholesterol, free fatty acid (FFA) and triglyceride levels. Serum glucose was analyzed using glucose oxidase method (Applygen, Beijing, China). The blood glucose in Table 11 was measured with Berenger blood glucose test strips (B/BRAUN, German) from blood by cutting mice tail after the 6th injection and following fast for 16 hours. Serum cholesterol and FFA were analyzed using Cholesterol Assay Kit and FFA Assay Kit (Bioassay Systems, USA; Nanjing Jiancheng Bioengineering Institute, China; FFA ELISA, R&D, USA), respectively. Serum triglyceride was analyzed using Triglyceride Assay Kit (Bioassay Systems, USA; WAKO Chemicals Inc., Japan; Applygen, Beijing, China). Liver triglyceride was analyzed using Tissue triglyceride assay kit (Applygen, Beijing, China). Serum insulin levels were measured by the Ultra Sensitive Mouse Insulin ELISA Kit (Crystal Chem. Inc., USA). RNA was isolated using Tissue RNA kit (Omega Bio-Tek, GA). The first strand cDNA were obtained by TAKARA reverse transcription kit. Real-time quantitative PCR were performed on a CFX96™ Real-Time PCR Detection System (Bio-Rad) using SYBR Premix Ex Taq™ (TAKARA). Relative mRNA expression levels were normalized to actin levels."}}, "note": "Marks after values point to notes of the source that are not given here."}
{"substance": "Hedragonic acid", "values": [{"measurement": "GSH (μM)", "setting": "[1]", "result": "72 ± 9^a μM"}, {"measurement": "Liver morphology by H&E staining (FIG. 1)", "setting": "[2]; 10 mg/kg (Tschimganine 20 mg/kg) i.p. five days, then APAP, compared to severe liver injury in control group", "result": "almost normal liver morphology"}, {"measurement": "expression levels of GPX1 and UGT1α1 in liver", "setting": "[2]; mRNA by RT-PCR, vs vehicle control group, Table 5 (not given)", "result": "significantly upregulated"}, {"measurement": "activities of serum AST, ALT and LDH", "setting": "[2]; vs vehicle control group, Table 5 (not given)", "result": "dramatically lower"}, {"measurement": "clearance rate to superoxide anion radical", "setting": "[3]", "result": "58%±6.4%"}, {"measurement": "Serum Insulin (ng/ml)", "setting": "db/db mice; vehicle 12 ± 3", "result": "4.65 ± 0.2^b ng/ml"}, {"measurement": "Serum Glucose (mg/dl)", "setting": "db/db mice; vehicle 521 ± 54", "result": "334 ± 50^a mg/dl"}, {"measurement": "Serum Glucose (mg/dl)", "setting": "KK-Ay mice", "result": "161 ± 21^b mg/dl"}]}
